The source of these data is article PMC6273012, “New Iridoid Glucosides from Caryopteris incana (Thunb.) Miq. and Their α-Glucosidase Inhibitory Activities” (Molecules, 2016).

The target of the assay is α-glucosidase from Saccharomyces cerevisiae (Saccharomyces cerevisiae, UniProt P53341). In words: α-glucosidase inhibition assay (pNPG substrate). The format is biochemical. To be noted: yeast α-glucosidase; acarbose as positive control. The procedure: The α-glucosidase inhibition assay was performed according to a slightly modified, previously reported method; α-Glucosidase (0.1 U/mL) was dissolved in potassium phosphate buffer (pH 6.8) as the enzyme solution. The tested compounds (50 μL, 5 mM) dissolved in potassium phosphate buffer containing 3% DMSO were mixed with 50 μL of enzyme solution. After incubation at 37 °C for 10 min, a p-nitrophenyl-α-glucopyranoside (pNPG) solution (100 μL) (5.0 mM pNPG in 0.1 M potassium phosphate buffer (pH 6.8)) was added. The enzymatic reaction proceeded at 37 °C for 20 min and was terminated by the addition of 100 μL of 0.2 M Na2CO3. 4-nitrophenol absorption was immediately measured at 405 nm by using a microplate reader. The experiments were performed in triplicate.

Entries after “also recorded” stand apart in the source; their conditions may differ.

Sequence of α-glucosidase from Saccharomyces cerevisiae (P53341 whole entry): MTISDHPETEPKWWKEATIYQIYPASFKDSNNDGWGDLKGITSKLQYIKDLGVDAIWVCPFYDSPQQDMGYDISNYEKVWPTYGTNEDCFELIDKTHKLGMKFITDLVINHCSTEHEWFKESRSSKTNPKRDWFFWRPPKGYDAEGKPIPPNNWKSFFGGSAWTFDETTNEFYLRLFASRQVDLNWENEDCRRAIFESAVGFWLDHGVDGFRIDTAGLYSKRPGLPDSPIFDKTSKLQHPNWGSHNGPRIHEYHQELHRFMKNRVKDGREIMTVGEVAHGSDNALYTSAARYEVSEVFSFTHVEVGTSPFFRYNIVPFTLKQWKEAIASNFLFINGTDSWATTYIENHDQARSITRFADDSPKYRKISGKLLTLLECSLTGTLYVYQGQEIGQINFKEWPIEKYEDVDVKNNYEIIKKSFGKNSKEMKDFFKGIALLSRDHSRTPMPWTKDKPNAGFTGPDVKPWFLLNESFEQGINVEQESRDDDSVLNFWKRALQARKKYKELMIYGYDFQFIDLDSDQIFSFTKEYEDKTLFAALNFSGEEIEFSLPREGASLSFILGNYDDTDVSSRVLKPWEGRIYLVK

Turning to `CC(=O)O[C@@]1(C)C[C@@H](OC(=O)C2=CO[C@@H](O[C@@H]3O[C@H](CO)[C@@H](O)[C@H](O)[C@H]3OC(=O)/C=C\c3ccc(O)cc3)[C@@H]3[C@H](C)CC[C@H]23)[C@@H]2C=CO[C@@H](O[C@@H]3O[C@H](CO)[C@@H](O)[C@H](O)[C@H]3O)[C@@H]21` [Compound 4, 2′′′-O-(Z)-p-coumaroyl caryocanoside B], the “α-glucosidase inhibitory effect (in words)” value is recorded as “stronger inhibitory effects against α-glucosidase than the positive control; also recorded: potent effect”. As for `CC(CO)c1cc2c(c(O)c1O[C@@H]1O[C@H](CO)[C@@H](O)[C@H](O)[C@H]1O)[C@@]1(C)CCC[C@](C)(CO[C@@H]3O[C@H](CO)[C@@H](O)[C@H](O)[C@H]3O)[C@@H]1CC2` (some centres unmarked) [Compound 10, ajugaside A], the “α-glucosidase inhibitory effect (in words)” value is listed as “stronger inhibitory effects against α-glucosidase than the positive control”.
